Laboratory results as given in the supplement of paper PMC10307832.

Columns and labels:
Test in all cases: relative viability (nuclei count vs DMSO), 5 days (fraction); higher = more cells survive
Ibrutinib + OSI-027 = compound: C=CC(=O)N1CCC[C@@H](n2nc(-c3ccc(Oc4ccccc4)cc3)c3c(N)ncnc32)C1 [Ibrutinib] + COc1cccc2cc(-c3nc([C@H]4CC[C@H](C(=O)O)CC4)n4ncnc(N)c34)[nH]c12 [OSI-027] (partner 0.5 µM)
Outline: (§1)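 Cells from lung cancer lines were seeded into 1536-well plates and, one day later, dosed by pin tool. Treatments were either a single drug or a fixed dose of an anchor drug with five library-drug doses (not always all listed) in √10 steps. After 5 days, nuclei were stained in a one-step fixation (final 0.05% Triton X-100, 1% formaldehyde, 1 ug/ml Hoechst) and counted on 4× images, and relative viability is the treated-to-vehicle nuclei ratio, as the median of duplicate plates.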

BMX-IN-1 + Decitabine = compound: C=CC(=O)Nc1cc(-n2c(=O)ccc3cnc4ccc(-c5ccc(NS(C)(=O)=O)cc5)cc4c32)ccc1C [BMX-IN-1] + Nc1ncn([C@H]2C[C@H](O)[C@@H](CO)O2)c(=O)n1 [Decitabine] (partner 2 µM)
Outline: as §1

PAC-1 + Foretinib = compound: C=CCc1cccc(/C=N/NC(=O)CN2CCN(Cc3ccccc3)CC2)c1O [PAC-1] + COc1cc2c(Oc3ccc(NC(=O)C4(C(=O)Nc5ccc(F)cc5)CC4)cc3F)ccnc2cc1OCCCN1CCOCC1 [Foretinib] (partner 0.25 µM)
Outline: as §1

Ibrutinib + Decitabine = compound: C=CC(=O)N1CCC[C@@H](n2nc(-c3ccc(Oc4ccccc4)cc3)c3c(N)ncnc32)C1 [Ibrutinib] + Nc1ncn([C@H]2C[C@H](O)[C@@H](CO)O2)c(=O)n1 [Decitabine] (partner 2 µM)
Outline: as §1

Row | Cell Line | relative viability (Ibrutinib + OSI-027; first compound 0.005 µM) | relative viability (Ibrutinib + OSI-027; first compound 0.01581 µM) | relative viability (Ibrutinib + OSI-027; first compound 0.05 µM) | relative viability (Ibrutinib + OSI-027; first compound 0.1581 µM) | relative viability (Ibrutinib + OSI-027; first compound 0.5 µM) | relative viability (BMX-IN-1 + Decitabine; first compound 0.02 µM) | relative viability (BMX-IN-1 + Decitabine; first compound 0.2 µM) | relative viability (BMX-IN-1 + Decitabine; first compound 0.6325 µM) | relative viability (BMX-IN-1 + Decitabine; first compound 2 µM) | relative viability (PAC-1 + Foretinib; first compound 0.02 µM) | relative viability (PAC-1 + Foretinib; first compound 0.06325 µM) | relative viability (PAC-1 + Foretinib; first compound 0.2 µM) | relative viability (PAC-1 + Foretinib; first compound 2 µM) | relative viability (Ibrutinib + Decitabine; first compound 0.005 µM) | relative viability (Ibrutinib + Decitabine; first compound 0.01581 µM) | relative viability (Ibrutinib + Decitabine; first compound 0.05 µM) | relative viability (Ibrutinib + Decitabine; first compound 0.1581 µM) | relative viability (Ibrutinib + Decitabine; first compound 0.5 µM)
1 | PC-14 | 0.71 | 0.689 | 0.641 | 0.907 | 0.554 | 0.18 | 0.227 | 0.292 | 0.305 | 0.932 | 0.939 | 0.935 | 0.92 | 0.241 | 0.202 | 0.217 | 0.168 | 0.22
2 | RERF-LC-KJ | 0.516 | 0.441 | 0.497 | 0.579 | 0.489 | 0.788 | 0.692 | 0.851 | 0.758 | 0.961 | 0.854 | 0.845 | 0.904 | 0.599 | 0.654 | 0.561 | 0.693 | 0.728
3 | HCC-15 | 0.654 | 0.595 | 0.689 | 0.403 | 0.757 | 0.721 | 0.651 | 0.652 | 0.713 | 0.993 | 1.08 | 0.985 | 1.04 | 0.711 | 0.57 | 0.661 | 0.581 | 0.662
4 | SW 900 |  |  | 0.532 | 0.442 | 0.62 | 0.564 | 0.51 | 0.461 | 0.539 | 1.14 | 0.976 | 0.864 | 0.717 | 0.401 | 0.509 | 0.412 | 0.432 | 0.458
5 | NCI-H1755 | 0.636 | 0.552 | 0.79 | 0.81 | 0.777 | 0.644 | 0.683 | 0.795 | 0.758 | 0.948 | 0.976 | 0.948 | 0.949 | 0.739 | 0.716 | 0.704 | 0.713 | 0.7
6 | NCI-H441 | 0.579 | 0.664 | 0.597 | 0.677 | 0.707 | 0.256 | 0.246 | 0.321 | 0.233 | 0.977 | 0.943 | 0.817 | 0.896 | 0.255 | 0.241 | 0.231 | 0.211 | 0.25
7 | HOP-62 | 0.689 | 0.733 | 0.832 | 0.982 | 0.924 | 0.214 | 0.255 | 0.26 | 0.237 | 1.1 | 1.13 | 1.1 | 1.17 | 0.242 |  | 0.22 | 0.249 | 0.231
8 | ABC-1 | 0.331 | 0.457 | 0.479 | 0.441 | 0.547 | 1.22 | 1.31 | 1.15 | 1.16 | 0.991 | 1.19 | 1 | 1.01 | 0.973 | 0.929 |  |  | 1.19
9 | UMC-11 | 0.306 | 0.441 | 0.495 | 0.541 | 0.5 | 0.604 | 0.526 | 0.66 | 0.664 | 1.06 | 1.05 | 1.04 | 1.01 |  | 0.588 | 0.452 | 0.596 | 0.789
10 | BEN |  | 0.3 | 0.288 |  | 0.298 | 0.7 | 0.755 | 0.792 | 0.674 | 0.68 | 0.651 | 0.589 | 0.678 | 0.454 | 0.817 | 0.687 | 0.521 | 0.646
11 | ChaGo-K-1 | 0.582 | 0.521 | 0.482 | 0.414 | 0.63 | 0.512 | 0.549 | 0.551 | 0.519 | 0.974 | 0.949 | 0.866 | 1.04 | 0.503 | 0.484 | 0.544 | 0.524 | 0.54
12 | NCI-H520 | 0.221 |  | 0.212 | 0.258 | 0.241 | 0.549 | 0.494 | 0.449 | 0.529 | 0.818 | 0.769 | 0.682 | 0.723 | 0.447 | 0.512 | 0.497 | 0.606 | 0.498
13 | SK-LU-1 | 0.262 | 0.324 | 0.301 | 0.397 | 0.381 | 0.789 | 0.679 | 0.834 | 0.679 | 0.834 | 0.797 | 0.78 | 0.78 | 0.592 | 0.664 | 0.626 | 0.571 | 0.617
14 | NCI-H2087 | 0.407 | 0.504 | 1.08 |  | 0.542 | 0.29 | 0.343 | 0.239 | 0.325 | 0.787 | 1.22 | 0.959 | 1.18 | 0.238 | 0.279 | 0.261 |  | 0.291
15 | COR-L 105 | 0.393 | 0.467 | 0.389 | 0.609 | 0.31 | 0.563 | 0.671 | 0.654 | 0.672 | 0.991 | 1.16 | 1.25 | 1.31 | 0.632 | 0.534 | 0.431 | 0.689 | 0.403
16 | NCI-H1395 | 0.602 | 0.617 | 0.612 | 0.5 | 0.781 | 0.781 | 0.695 | 0.677 | 0.769 | 0.937 | 1.02 | 0.875 | 0.873 | 0.777 | 0.688 | 0.811 | 0.697 | 0.75
17 | EKVX | 0.644 | 0.663 | 0.763 | 0.737 | 0.511 | 0.333 | 0.281 | 0.617 | 0.381 | 0.886 | 0.792 | 0.69 | 0.427 | 0.281 | 0.247 | 0.421 | 0.315 | 0.226
18 | NCI-H23 | 0.331 | 0.562 | 0.681 | 0.57 | 0.607 | 0.326 | 0.295 | 0.338 | 0.296 | 1.08 | 0.954 | 0.844 | 0.965 | 0.313 | 0.343 | 0.339 | 0.298 | 0.339
